The numbers were not newly measured in patent publication US20140017301A1, “DRUG-FREE COMPOSITIONS AND METHODS FOR DIMINISHING PERIPHERAL INFLAMMATION AND PAIN” (priority 2011, published 2014), which cites them from elsewhere.

For the data set the following is noted: excipients of Table 3.

Consider `O=c1[nH]sc2ccccc12` [1,2-benzothiazol-3-one], for which the lipophilicity (log P) is 1.08. As to `CC1(C)C(=O)N(CO)C(=O)N1CO` [1,3-Dimethylol-5,5-dimethylhydantoin], the “log P” value is given as 0.6. Take `Cc1cc(O)c(C)c(C)c1O` [2,3,5-trimethylbenzene-1,4-diol]: the log partition coefficient (log P) is reported as 2.12.

On to `O=C(O)CNCO` [2-(hydroxymethylamino)acetic adic], for which the “log P” value is −2.2.

Take `Cn1sccc1=O` [2-methyl-1,2-thiazol-3-one]: the “log P” value is on record as −0.06.

Take `OCC(O)CS` (stereo not shown) [3-sulfanylpropane-1,2-diol]: the “log P” value is on record as −0.57.

Turning to `CCCCCCOc1cc(C)c(O)c(C)c1C` [4-hexoxy-2,3,6-trimethylphenol, HTHQ, 4-hexoxy-2,3,6-trimethylphenol], the “log P” value is 4.81. As for `O=[N+]([O-])C1(Br)COCOC1` [5-Bromo-5-nitro-1,3-dioxane, bronidox, 5-Bromo-5-nitro-1,3-dioxane], the “log P” value is on record as 0.44. On to `Cc1ccc(C(C)C)c(O)c1` [6-isopropyl-m-cresol; thymol, 6-isopropyl-m-cresol], for which the “log P” value is given as 3.21.

On to `CC(=O)OC1CC(C)OC(C)O1` (stereo not shown) [(2,6-dimethyl-1,3-dioxan-4-yl) acetate], for which the “log P” value is 0.87. In the case of `OCc1ccccc1` [Benzyl alcohol], the “log P” value is reported as 1.23. Turning to `CCCCOC(=O)c1ccc(O)cc1` [Butyl 4-hydroxybenzoate; butylparabene, Butyl 4-hydroxybenzoate], the “log P” value is listed as 3.07. On to `COc1ccc(O)c(C(C)(C)C)c1` [Butylated hydroxyanisole, BHA, Butylated hydroxyanisole], for which the “log P” value is recorded as 3.13. `CC(=O)C1C(=O)C=C(C)OC1=O` (stereo not shown) [Dehydroacetic acid]: the log partition coefficient (log P) is reported as −0.05. As to `O=C1C(N(CO)C(=O)NCO)N(CO)C(=O)N1CO` (stereo not shown) [Diazodinyl Urea (Germall II), Diazodinyl Urea], the “log P” value is on record as −3.2. Regarding `CCOC(=O)c1ccc(O)cc1` [Ethyl 4-hydroxybenzoate; ethylparabene, Ethyl 4-hydroxybenzoate], the lipophilicity (log P) is on record as 2.16. Consider `COC(=O)c1ccc(O)cc1` [Methyl 4-hydroxybenzoate; methylparabene, Methyl 4-hydroxybenzoate], for which the “log P” value is recorded as 1.72. On to `OCCOc1ccccc1` [Phenoxyethanol], for which the “log P” value was 1.26.

Regarding `OCCc1ccccc1` [Phenylethanol], the “log P” value is listed as 1.61. On to `CCCOC(=O)c1ccc(O)cc1` [Propyl 4-hydroxybenzoate; propylparabene, Propyl 4-hydroxybenzoate], for which the “log P” value is listed as 2.63. Turning to `C/C=C/C=C/C(=O)O` [Sorbic acid], the log partition coefficient (log P) is on record as 1.38. Take `NC(N)=S` [Thiourea]: the “log P” value is −0.96. As for Benzalkonium, the “log P” value is recorded as 3.67. In the case of Propanediol, the “log P” value was −0.71.

Consider Tocopherol, for which the “log P” value is reported as 9.76.
